Here are results for 26 compounds from patent US12098144B2, “Piperazine indazole glucocorticoid receptor antagonists” (Corcept Therapeutics Incorporated, priority 2021, dated 2024).

What is called Ki is the equilibrium dissociation constant of an inhibitor or competing ligand from its target.

The experiment addresses T1, glucocorticoid receptor (Homo sapiens, UniProt P04150).
T1 construct: endogenous in cells; ATCC cat
T1 sequence (P04150 1-777): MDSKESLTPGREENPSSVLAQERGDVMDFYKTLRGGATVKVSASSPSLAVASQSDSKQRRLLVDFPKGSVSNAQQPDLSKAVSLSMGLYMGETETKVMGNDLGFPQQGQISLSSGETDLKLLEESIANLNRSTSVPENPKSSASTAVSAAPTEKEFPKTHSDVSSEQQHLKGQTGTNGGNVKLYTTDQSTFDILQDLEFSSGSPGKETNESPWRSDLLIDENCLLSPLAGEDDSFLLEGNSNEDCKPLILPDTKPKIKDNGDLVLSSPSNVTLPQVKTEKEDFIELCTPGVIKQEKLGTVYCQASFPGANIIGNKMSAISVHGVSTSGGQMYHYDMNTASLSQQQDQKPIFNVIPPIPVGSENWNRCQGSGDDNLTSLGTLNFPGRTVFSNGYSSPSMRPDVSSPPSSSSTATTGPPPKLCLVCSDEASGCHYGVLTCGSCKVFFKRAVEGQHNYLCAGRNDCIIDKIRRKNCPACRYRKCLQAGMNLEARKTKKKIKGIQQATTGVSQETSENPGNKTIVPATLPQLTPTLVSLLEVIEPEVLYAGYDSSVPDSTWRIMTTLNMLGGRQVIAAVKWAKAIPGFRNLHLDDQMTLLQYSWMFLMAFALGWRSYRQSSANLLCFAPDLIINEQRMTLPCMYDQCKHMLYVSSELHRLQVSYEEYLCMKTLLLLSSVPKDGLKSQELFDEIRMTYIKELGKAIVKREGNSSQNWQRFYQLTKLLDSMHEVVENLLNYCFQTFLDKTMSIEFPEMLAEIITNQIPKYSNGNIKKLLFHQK
Briefly: Hep G2 TAT Ki: inhibition of dexamethasone-induced TAT in HepG2 cells (96 well). In kind it is cell-based. As to conditions: challenge of 100 nM dexamethasone, IC50 converted to Ki by Cheng and Prusoff equation. The method in brief:
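Cells lysed 15 min at 4 °C; TAT enzyme reaction 2 h at 37 °C, stopped with KOH, 30 min further at 37 °C. Inhibition fitted to 4-parameter logistic.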
`Cc1cc2c(cnn2-c2ccc(F)cc2)cc1C1CN(S(=O)(=O)c2cnn(C3CCOCC3)c2)CCN1CC(C)C` (centres unmarked) [Example 36, 1-(4-fluorophenyl)-5-(1-isobutyl-4-((1-(tetrahydro-2H-pyran-4-yl)-1H-pyrazol-4-yl)sulfonyl)piperazin-2-yl)-6-methyl-1H-indazole] returned a Ki of 50 nM.

Compound `Cc1cc2c(cnn2-c2ccc(F)cc2)cc1C1CN(S(=O)(=O)c2cnn(C(C)C)n2)CCN1CC(C)C` (centres unmarked) [Example 37, 1-(4-fluorophenyl)-5-(1-isobutyl-4-((2-isopropyl-2H-1,2,3-triazol-4-yl)sulfonyl)piperazin-2-yl)-6-methyl-1H-indazole] yielded a Ki of 76 nM.

Regarding `CCn1cc(S(=O)(=O)N2CCN(CC(C)C)C(c3cc4cnn(-c5ccc(F)cc5)c4cc3C)C2)cn1` (centres unmarked) [Example 38, 5-(4-((1-ethyl-1H-pyrazol-4-yl)sulfonyl)-1-isobutylpiperazin-2-yl)-1-(4-fluorophenyl)-6-methyl-1H-indazole], the affinity corresponds to a Ki of 46 nM.

As to `Cc1cc2c(cnn2-c2ccc(F)cc2)cc1C1CN(S(C)(=O)=O)CCN1CC(C)C` (centres unmarked) [Example 39, 1-(4-fluorophenyl)-5-(1-isobutyl-4-(methylsulfonyl)piperazin-2-yl)-6-methyl-1H-indazole], the inhibitory constant (Ki) amounted to 57 nM.

Compound `CCn1ncc(S(=O)(=O)N2CCN(CC(C)C)C(c3cc4cnn(-c5ccc(F)cc5)c4cc3C)C2)n1` (centres unmarked) [Example 40, 5-(4-((2-ethyl-2H-1,2,3-triazol-4-yl)sulfonyl)-1-isobutylpiperazin-2-yl)-1-(4-fluorophenyl)-6-methyl-1H-indazole] showed an inhibition constant (Ki) of 53 nM.

For `CCCn1ncc(S(=O)(=O)N2CCN(CC(C)C)C(c3cc4cnn(-c5ccc(F)cc5)c4cc3C)C2)n1` (centres unmarked) [Example 41, 1-(4-fluorophenyl)-5-(1-isobutyl-4-((2-propyl-2H-1,2,3-triazol-4-yl)sulfonyl)piperazin-2-yl)-6-methyl-1H-indazole], the Ki came to 60 nM. This Ki and that of the compound before are within 1.5-fold of each other.

For `Cc1cc2c(cnn2-c2ccc(F)cc2)cc1C1CN(S(=O)(=O)c2ccn(C)n2)CCN1CC(C)C` (centres unmarked) [Example 42, 1-(4-fluorophenyl)-5-(1-isobutyl-4-((1-methyl-1H-pyrazol-3-yl)sulfonyl)piperazin-2-yl)-6-methyl-1H-indazole], the Ki came out at 40 nM.

Consider `Cc1cc2c(cnn2-c2ccc(F)cc2)cc1C1CN(S(=O)(=O)c2cncc(F)c2)CCN1CC(C)C` (centres unmarked) [Example 43, 1-(4-fluorophenyl)-5-(4-((5-fluoropyridin-3-yl)sulfonyl)-1-isobutylpiperazin-2-yl)-6-methyl-1H-indazole], for which the Ki was 76 nM.

Compound `Cc1cc2c(cnn2-c2ccc(F)cc2)cc1C1CN(S(=O)(=O)C2CCOCC2)CCN1CC(C)C` (centres unmarked) [Example 44, 1-(4-fluorophenyl)-5-(1-isobutyl-4-((tetrahydro-2H-pyran-4-yl)sulfonyl)piperazin-2-yl)-6-methyl-1H-indazole] registered a Ki of 93 nM.

For `Cc1cc2c(cnn2-c2ccc(F)cc2)cc1C1CN(C(=O)C(C)O)CCN1CC(C)C` (centres unmarked) [Example 65, 1-(3-(1-(4-fluorophenyl)-6-methyl-1H-indazol-5-yl)-4-isobutylpiperazin-1-yl)-2-hydroxypropan-1-one], affinity was put at a Ki of 370 nM. This Ki is about 4-fold higher than that of the compound before.

With `CC(=O)N1CCN(CC(C)C)C(c2cc3cnn(-c4ccc(F)cc4)c3cc2C)C1` (centres unmarked) [Example 66, 1-(3-(1-(4-fluorophenyl)-6-methyl-1H-indazol-5-yl)-4-isobutylpiperazin-1-yl)ethan-1-one], the Ki came to 260 nM.

Compound `Cc1cc2c(cnn2-c2ccc(F)cc2)cc1C1CN(C(=O)c2cnn(C)n2)CCN1CC(C)C` (centres unmarked) [Example 67, (3-(1-(4-fluorophenyl)-6-methyl-1H-indazol-5-yl)-4-isobutylpiperazin-1-yl)(2-methyl-2H-1,2,3-triazol-4-yl)methanone] showed a Ki of 390 nM.

With `Cc1cc2c(cnn2-c2ccc(F)cc2)cc1C1CN(S(=O)(=O)c2cnn(C)n2)CCN1CCCC(F)(F)F` (centres unmarked) [Example 68, 1-(4-fluorophenyl)-6-methyl-5-(4-((2-methyl-2H-1,2,3-triazol-4-yl)sulfonyl)-1-(4,4,4-trifluorobutyl)piperazin-2-yl)-1H-indazole], the Ki is 58 nM.

Regarding `Cc1cc2c(cnn2-c2ccc(F)cc2)cc1C1CN(S(=O)(=O)c2cnn(C)n2)CCN1CC1(C#N)CC1` (centres unmarked) [Example 69, 1-((2-(1-(4-fluorophenyl)-6-methyl-1H-indazol-5-yl)-4-((2-methyl-2H-1,2,3-triazol-4-yl)sulfonyl)piperazin-1-yl)methyl)cyclopropane-1-carbonitrile], the Ki turned out to be 180 nM. This Ki is about 3.1-fold higher than that of the compound before.

In turn, `Cc1cc2c(cnn2-c2ccc(F)cc2)cc1C1CN(S(=O)(=O)c2cnn(C)n2)CCN1Cc1ccccn1` (centres unmarked) [Example 70, 1-(4-fluorophenyl)-6-methyl-5-(4-((2-methyl-2H-1,2,3-triazol-4-yl)sulfonyl)-1-(pyridin-2-ylmethyl)piperazin-2-yl)-1H-indazole] yielded a Ki of 170 nM.

On to `Cc1ccccc1CN1CCN(S(=O)(=O)c2cnn(C)n2)CC1c1cc2cnn(-c3ccc(F)cc3)c2cc1C` (centres unmarked) [Example 71, 1-(4-fluorophenyl)-6-methyl-5-(4-((2-methyl-2H-1,2,3-triazol-4-yl)sulfonyl)-1-(2-methylbenzyl)piperazin-2-yl)-1H-indazole], for which the Ki was 160 nM.

Compound `Cc1cc2c(cnn2-c2ccc(F)cc2)cc1[C@@H]1CN(S(=O)(=O)c2cnn(C)n2)CCN1CCC(F)(F)F` [Example 84, (R)-1-(4-fluorophenyl)-6-methyl-5-(4-((2-methyl-2H-1,2,3-triazol-4-yl)sulfonyl)-1-(3,3,3-trifluoropropyl)piperazin-2-yl)-1H-indazole] showed a Ki of 14 nM. Against the preceding compound, the Ki is about 11-fold lower.

Regarding `Cc1cc2c(cnn2-c2ccc(F)cc2)cc1C1CN(S(=O)(=O)c2cnn(C)n2)CCN1c1ccccc1` (centres unmarked) [Example 86, 1-(4-fluorophenyl)-6-methyl-5-(4-((2-methyl-2H-1,2,3-triazol-4-yl)sulfonyl)-1-phenylpiperazin-2-yl)-1H-indazole], the Ki was determined as 180 nM. This Ki lies about 13-fold higher than the previous one.

`Cc1cc2c(cnn2-c2ccc(F)cc2)cc1C1CN(S(=O)(=O)c2cnn(C)n2)CC(C)N1CC(C)C` (centres unmarked) [Example 87, 1-(4-fluorophenyl)-5-(1-isobutyl-6-methyl-4-((2-methyl-2H-1,2,3-triazol-4-yl)sulfonyl)piperazin-2-yl)-6-methyl-1H-indazole] gave a Ki of 54 nM.

`Cc1cc2c(cnn2-c2ccc(F)cc2)cc1C1C(C)N(S(=O)(=O)c2cnn(C)n2)CCN1CC(C)C` (centres unmarked) [Example 88, 1-(4-fluorophenyl)-5-(1-isobutyl-3-methyl-4-((2-methyl-2H-1,2,3-triazol-4-yl)sulfonyl)piperazin-2-yl)-6-methyl-1H-indazole] came in with a Ki of 35 nM.

Compound `Cc1cc2c(cnn2-c2ccc(F)cc2)cc1C1CN(S(=O)(=O)c2cnn(C)n2)C(C)CN1CC(C)C` (centres unmarked) [Example 89, 1-(4-fluorophenyl)-5-(1-isobutyl-5-methyl-4-((2-methyl-2H-1,2,3-triazol-4-yl)sulfonyl)piperazin-2-yl)-6-methyl-1H-indazole] registered a Ki of 34 nM.

Compound `Cc1cc2c(cnn2-c2ccc(F)cc2)cc1C1C(=O)N(S(=O)(=O)c2cnn(C)n2)CCN1CC(C)C` (centres unmarked) [Example 152, 3-(1-(4-fluorophenyl)-6-methyl-1H-indazol-5-yl)-4-isobutyl-1-((2-methyl-2H-1,2,3-triazol-4-yl)sulfonyl)piperazin-2-one] gave a Ki of 120 nM.

Compound `Cc1cc2c(cnn2-c2ccc(F)cc2)cc1C1CN(S(=O)(=O)c2cnn(C)n2)CC(=O)N1Cc1ccccc1` (centres unmarked) [Example 153, 1-benzyl-6-(1-(4-fluorophenyl)-6-methyl-1H-indazol-5-yl)-4-((2-methyl-2H-1,2,3-triazol-4-yl)sulfonyl)piperazin-2-one] came in with a Ki of 380 nM.

In turn, `CC(C)CN1CCN(S(=O)(=O)c2cnn(C)n2)CC1c1cc2cnn(-c3ccc(F)cc3)c2cc1F` (centres unmarked) [Example 159, 6-fluoro-1-(4-fluorophenyl)-5-(1-isobutyl-4-((2-methyl-2H-1,2,3-triazol-4-yl)sulfonyl)piperazin-2-yl)-1H-indazole] showed an inhibitory constant (Ki) of 220 nM.

The compound `Cc1cc2c(cnn2-c2ccc(F)cc2)cc1C1CN(S(=O)(=O)c2cnn(C)n2)CCN1CC(C)(C)O` (centres unmarked) [Example 162, 1-(2-(1-(4-fluorophenyl)-6-methyl-1H-indazol-5-yl)-4-((2-methyl-2H-1,2,3-triazol-4-yl)sulfonyl)piperazin-1-yl)-2-methylpropan-2-ol] registered a Ki of 260 nM.

The compound `CC(C)CN1CCN(S(=O)(=O)c2cnn(C)n2)CC1c1cc2cnn(-c3ccc(F)cc3)c2cc1C(F)(F)F` (centres unmarked) [Example 164, 1-(4-fluorophenyl)-5-(1-isobutyl-4-((2-methyl-2H-1,2,3-triazol-4-yl)sulfonyl)piperazin-2-yl)-6-(trifluoromethyl)-1H-indazole] registered a Ki of 170 nM. Against the preceding compound, the Ki is about 1.5-fold lower.
